# How the values were obtained:
# [1] = molecular target: T1, BTK enzyme (recombinant full-length BTK, hBTK) (Homo sapiens, UniProt Q06187); experiment: Btk enzyme activity assay (LANCE TR-FRET); format: biochemical; details: 50 pM hBTK, 25 μM ATP, 60 minute compound and enzyme incubation, concentration range 1 μM to 0.017 nM, read-out: BTK binding IC50
# T1 construct: recombinant protein from baculovirus-transfected S 19 cells: full-length BTK, 6 HIS-tag cleaved; 6 HIS-tag (cleaved yes); made in house
# T1 sequence (Q06187 whole entry): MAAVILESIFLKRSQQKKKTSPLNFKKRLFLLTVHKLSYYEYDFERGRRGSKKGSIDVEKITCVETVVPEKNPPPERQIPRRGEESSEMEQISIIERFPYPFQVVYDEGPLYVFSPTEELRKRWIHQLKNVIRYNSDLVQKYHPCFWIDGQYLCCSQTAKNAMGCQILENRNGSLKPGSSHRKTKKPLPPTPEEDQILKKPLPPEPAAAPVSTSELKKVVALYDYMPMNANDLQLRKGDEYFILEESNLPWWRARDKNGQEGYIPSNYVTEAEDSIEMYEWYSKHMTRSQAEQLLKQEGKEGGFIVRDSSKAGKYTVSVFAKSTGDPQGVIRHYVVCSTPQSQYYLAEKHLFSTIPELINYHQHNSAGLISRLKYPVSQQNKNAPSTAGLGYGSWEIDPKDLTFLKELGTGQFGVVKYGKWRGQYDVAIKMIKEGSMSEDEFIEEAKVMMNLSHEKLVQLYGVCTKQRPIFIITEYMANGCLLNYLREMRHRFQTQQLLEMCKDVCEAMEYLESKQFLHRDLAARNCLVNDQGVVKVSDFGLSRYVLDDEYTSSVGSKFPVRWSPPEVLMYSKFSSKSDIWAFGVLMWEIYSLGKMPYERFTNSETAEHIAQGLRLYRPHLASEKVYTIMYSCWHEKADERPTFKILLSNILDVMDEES
# [2] = test system: adenosine uptake into HeLa cells; experiment: [3H]Adenosine uptake assay; format: cell-based; details: Homo sapiens; accumulation of [3H]adenosine into HeLa cells; concentration range 10 μM to 0.032 nM; read-out: ADU inhibition IC50
# Procedure, shortened: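 HeLa cells (25 000/well), plated overnight, were preincubated 30 minutes at ambient temperature with compound in HBSS + 5% FBS. Ten-point titrations ran from 10 μM to 0.032 nM final. [3H]adenosine was added from a 500 nM solution for 60 minutes, and uptake was measured by scintillation proximity counting; IC50 came from a 4-parameter fit.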
SMILES,IC50 [1] [nM],IC50 [2] [nM]
"CCOc1cc(C(=O)Nc2cc(C(F)(F)F)ccn2)cc(F)c1-c1nc([C@H]2CN(C(=O)[C@@H](C)O)[C@@H](C)CO2)n2c(Cl)cnc(N)c12 [Example 107, 4-(8-amino-5-chloro-3-{(2R,5S)-4-[(2R)-2-hydroxypropanoyl]-5-methylmorpholin-2-yl}imidazo[1,5-a]pyrazin-1-yl)-3-ethoxy-5-fluoro-N-[4-(trifluoromethyl)pyridin-2-yl]benzamide]",0.479,1990
"COCC(=O)N1C[C@H](c2nc(-c3ccc(C(=O)Nc4cc(C(F)(F)F)ccn4)cc3F)c3c(N)nccn23)OC[C@H]1C [Example 70, 4-{8-amino-3-[(2R,5R)-4-(methoxyacetyl)-5-methylmorpholin-2-yl]imidazo[1,5-a]pyrazin-1-yl}-3-fluoro-N-[4-(trifluoromethyl)pyridin-2-yl]benzamide]",13.8,135
"CC(=O)N1C[C@H](c2nc(-c3ccc(C(=O)Nc4cc(C(F)(F)F)ccn4)cc3)c3c(N)nccn23)OC[C@@H]1C [Example 83, 4-{3-[(2R,5S)-4-acetyl-5-methylmorpholin-2-yl]-8-aminoimidazo[1,5-a]pyrazin-1-yl}-N-[4-(trifluoromethyl)pyridin-2-yl]benzamide]",0.363,188
"C[C@H](O)C(=O)N1C[C@H](c2nc(-c3ccc(C(=O)Nc4cc(C(F)(F)F)ccn4)cc3F)c3c(N)nccn23)OC[C@@H]1C [Example 84, 4-(8-amino-3-{(2R,5S)-4-[(2S)-2-hydroxypropanoyl]-5-methylmorpholin-2-yl}imidazo[1,5-a]pyrazin-1-yl)-3-fluoro-N-[4-(trifluoromethyl)pyridin-2-yl]benzamide]",0.368,360
"C[C@H]1CO[C@@H](c2nc(-c3ccc(C(=O)Nc4ccccn4)cc3)c3c(N)nccn23)CN1C1CCOCC1 [Example 57, 4-{8-amino-3-[(2R,5S)-5-methyl-4-(tetrahydro-2H-pyran-4-yl)morpholin-2-yl]imidazo[1,5-a]pyrazin-1-yl}-N-pyridin-2-ylbenzamide]",26.7,1020
"COc1cc(C(=O)Nc2cc(C(F)(F)F)ccn2)ccc1-c1nc([C@H]2CN(Cc3cnn(C)c3)[C@@H](C)CO2)n2c(Cl)cnc(N)c12 [Example 25, 4-(8-amino-5-chloro-3-{(2R,5S)-5-methyl-4-[(1-methyl-1H-pyrazol-4-yl)methyl]morpholin-2-yl}imidazo[1,5-a]pyrazin-1-yl)-3-methoxy-N-[4-(trifluoromethyl)pyridin-2-yl]benzamide]",1.94,930
"C[C@H]1CC[C@@H](c2nc(-c3ccc(C(=O)Nc4cc(C(F)F)ccn4)cc3)c3c(N)nccn23)CN1C(=O)C1(O)CC1 [Example 93, 4-(8-amino-3-{(3R,6S)-1-[(1-hydroxycyclopropyl)carbonyl]-6-methylpiperidin-3-yl}imidazo[1,5-a]pyrazin-1-yl)-N-[4-(difluoromethyl)pyridin-2-yl]benzamide]",0.248,37.1
"CCOc1cc(C(=O)Nc2cc(C(F)(F)F)ccn2)ccc1-c1nc([C@H]2CN(C(=O)C3(C)CC3)[C@@H](C)CO2)n2c(Cl)cnc(N)c12 [Example 12, 4-(8-amino-5-chloro-3-{(2R,5S)-5-methyl-4-[(1-methylcyclopropyl)carbonyl]morpholin-2-yl}imidazo[1,5-a]pyrazin-1-yl)-3-ethoxy-N-[4-(trifluoromethyl)pyridin-2-yl]benzamide]",1.1,≥ 10000
"CCOc1cc(C(=O)Nc2cc(C(F)(F)F)ccn2)ccc1-c1nc([C@H]2CN(C(=O)C3CC3(F)F)[C@@H](C)CO2)n2c(Cl)cnc(N)c12 (stereo partly drawn) [Example 102, 4-(8-amino-5-chloro-3-{(2R,5S)-4-[(2,2-difluorocyclopropyl)carbonyl]-5-methylmorpholin-2-yl}imidazo[1,5-a]pyrazin-1-yl)-3-ethoxy-N-[4-(trifluoromethyl)pyridin-2-yl]benzamide]",3.12,5930
"CCOc1cc(C(=O)Nc2cc(C(F)(F)F)ccn2)ccc1-c1nc([C@H]2CN(C3CCS(=O)(=O)CC3)[C@@H](C)CO2)n2c(Cl)cnc(N)c12 [Example 108, 4-{8-amino-5-chloro-3-[(2R,5S)-4-(1,1-dioxidotetrahydro-2H-thiopyran-4-yl)-5-methylmorpholin-2-yl]imidazo[1,5-a]pyrazin-1-yl}-3-ethoxy-N-[4-(trifluoromethyl)pyridin-2-yl]benzamide]",1.8,1320
"C[C@H]1CO[C@@H](c2nc(-c3ccc(C(=O)Nc4cc(C(F)(F)F)ccn4)cc3F)c3c(N)ncc(Cl)n23)CN1C1CCOCC1 [Example 48, 4-{8-amino-5-chloro-3-[(2R,5S)-5-methyl-4-(tetrahydro-2H-pyran-4-yl)morpholin-2-yl]imidazo[1,5-a]pyrazin-1-yl}-3-fluoro-N-[4-(trifluoromethyl)pyridin-2-yl]benzamide]",0.303,397
"CCOc1cc(C(=O)Nc2cc(C(F)(F)F)ccn2)ccc1-c1nc([C@H]2CN(C(=O)[C@H](C)O)[C@@H](C)CO2)n2ccnc(N)c12 [Example 98, 4-(8-amino-3-{(2R,5S)-4-[(2S)-2-hydroxypropanoyl]-5-methylmorpholin-2-yl}imidazo[1,5-a]pyrazin-1-yl)-3-ethoxy-N-[4-(trifluoromethyl)pyridin-2-yl]benzamide]",1.74,1610
"Nc1nccn2c1c(-c1ccc(C(=O)Nc3cc(C(F)(F)F)ccn3)cc1)nc2[C@H]1C[C@H](Nc2c(NC3CC3)c(=O)c2=O)C1 [Example 114, 4-[8-amino-3-(trans-3-{[2-(cyclopropylamino)-3,4-dioxocyclobut-1-en-1-yl]amino}cyclobutyl)imidazo[1,5-a]pyrazin-1-yl]-N-[4-(trifluoromethyl)pyridin-2-yl]benzamide]",0.327,925
"COc1cc(C(=O)Nc2cc(C(F)(F)F)ccn2)ccc1-c1nc([C@H]2CN(C3CCOCC3)[C@@H](C)CO2)n2ccnc(N)c12 [Example 60, 4-{8-amino-3-[(2R,5S)-5-methyl-4-(tetrahydro-2H-pyran-4-yl)morpholin-2-yl]imidazo[1,5-a]pyrazin-1-yl}-3-methoxy-N-[4-(trifluoromethyl)pyridin-2-yl]benzamide]",1.57,1620
"CCOc1cc(C(=O)Nc2cc(C(F)(F)F)ccn2)ccc1-c1nc([C@@H]2CC[C@H](C)N(C(=O)[C@@H](C)O)C2)n2c(Cl)cnc(N)c12 [Example 111, 4-(8-amino-5-chloro-3-{(3R,6S)-1-[(2R)-2-hydroxypropanoyl]-6-methylpiperidin-3-yl}imidazo[1,5-a]pyrazin-1-yl)-3-ethoxy-N-[4-(trifluoromethyl)pyridin-2-yl]benzamide]",0.274,982
"CC(C)C(=O)N1C[C@H](c2nc(-c3ccc(C(=O)Nc4cc(C(F)(F)F)ccn4)cc3F)c3c(N)nccn23)OC[C@@H]1C [Example 87, 4-{8-amino-3-[(2R,5S)-5-methyl-4-(2-methylpropanoyl)morpholin-2-yl]imidazo[1,5-a]pyrazin-1-yl}-3-fluoro-N-[4-(trifluoromethyl)pyridin-2-yl]benzamide]",0.738,141
"COc1cc(C(=O)Nc2cc(C(F)(F)F)ccn2)ccc1-c1nc([C@H]2CN(C(=O)[C@H](C)OC)[C@@H](C)CO2)n2ccnc(N)c12 [Example 51, 4-(8-amino-3-{(2R,5S)-4-[(2S)-2-methoxypropanoyl]-5-methylmorpholin-2-yl}imidazo[1,5-a]pyrazin-1-yl)-3-methoxy-N-[4-(trifluoromethyl)pyridin-2-yl]benzamide]",4.31,1410

# From patent US20170349593A1, “BTK INHIBITORS” (MERCK SHARP & DOHME CORP., priority 2014, published 2017)
